Like-named read-outs stand apart in the source and are kept apart here.
Tests used:
VCaP cells = test: Cellular growth inhibition assay for VCaP cells (CellTiter-Glo 2.0, 72 hours); type: cell-based, human; conditions: for GI50: CellTiter-Glo 2.0; for Ratio of GI50's: GI50 of the top compound in the pair divided by GI50 of the lower compound
[1] = system: T-Rex 293 cell line SC3 cells lacking increased expression of androgen receptor protein; test: Cellular growth inhibition, T-Rex 293 SC3 cells without doxycycline (CellTiter-Glo 2.0, 72 hours); type: cell-based; conditions: T-Rex 293 SC3 cells not exposed to doxycycline (no increased androgen receptor expression)
[2] = system: T-Rex 293 cell line SC3 cells having increased expression of androgen receptor protein due to exposure to doxycycline; test: Cellular growth inhibition, T-Rex 293 SC3 cells with doxycycline-induced androgen receptor (CellTiter-Glo 2.0, 72 hours); type: cell-based; conditions: for GI50: T-Rex 293 SC3 cells with 10 ng/ml doxycycline (increased androgen receptor expression), 72 hours, CellTiter-Glo 2.0; for Ratio of GI50's: GI50 of the top compound in the pair divided by GI50 of the lower compound, T-Rex 293 SC3 cells with doxycycline-induced androgen receptor
T47D cells = test: Cellular growth inhibition assay for T47D cells (CellTiter-Glo 2.0, 72 hours); type: cell-based, human
Procedure: Exemplary compounds were tested for ability to inhibit the proliferation of T47D cells. T47D cells are a commercially available human breast cancer cell line.
T47D cells were purchased from American Type Cell Culture (ATCC Cat #HTB-133) and then seeded on poly-D-lysine coated, black clear-bottom 384-well plates at 3000/well in 25 μL Dulbecco's Modified Eagle Medium (DMEM) supplemented with 10% w/w Fetal bovine serum (FBS), 0.2 units/mL recombinant human insulin (Gibco Cat #12585014), and 1% w/w Pen-Strep. Pen-Strep is a commercially available mixture of penicillin G and streptomycin, which is used in mammalian cell culture media to prevent bacterial contamination. Dulbecco's Modified Eagle Medium (DMEM) supplemented with 10% w/w fetal bovine serum (FBS), 0.2 units/mL recombinant human insulin, and 1% w/w Pen-Strep is herein referred to as Treatment Medium. Following seeding of cells in the plates, the plates were spun at 300×g for 30 seconds, then equilibrated to room temperature for 30 minutes, and then deposited in a humidified tissue culture incubator maintained at 37° C. with 5% CO2.
At 24 hours after seeding of the cells, dilutions of test compound were prepared in DMSO and dissolved in Treatment Medium, to achieve a final DMSO concentration of 0.5% w/w, thereby providing the Test Compound Solution. A 25 μL aliquot of the Test Compound Solution was added to cells in the well plates. An equal volume of a solution containing DMSO and Treatment Medium was used as a negative control. Following treatment of cells with Test Compound Solution or said equal volume of a solution containing DMSO and Treatment Medium, the plates were spun at 300×g for 30 seconds, and then left in an incubator for 72 hours.
At the end of the treatment duration, cell viability was quantified with CellTiter-Glo 2.0 reagent (Promega Cat #G9243). For this purpose, plates were equilibrated to room temperature for 30 minutes, and then 25 μL of CellTiter-Glo 2.0 reagent was added to cells in the plate wells. Plates were then agitated on a shaker for two minutes at 500 rpm and subsequently incubated at room temperature for 10 minutes. Following incubation, the plates were spun at 3000×g for 30 seconds, then sealed with an optical adhesive cover, and luminescence readings were measured with an En Vision Plate Reader (Perkin Elmer).
Data was normalized using zero luminescence for baseline. A four-parameter non-linear regression curve fit was applied to dose-response data in GraphPad Prism data analysis software to determine the half-maximal growth inhibitory concentration (GI50) for each test compound.

[3] = Stability analysis of Crystal Form A and Crystal Form B in solvent suspensions (XRPD); type: physicochemical; conditions: suspensions in EtOH, Acetone, Acetonitrile, THF/Heptane at 25° C. and 50° C. for 1 week
Procedure: The obtained suspensions were stirred at 25° C. and 50° C. for 1 week, respectively. Solid parts (wet cakes) were isolated by centrifugation filtration at […] temperature and investigated by XRPD.

[4] = Stability to storage of crystal form under relative humidity; type: physicochemical; conditions: 23-25° C., 23% RH to 53% RH, one week
[5] = target: T1, androgen receptor and BRD4 protein (Homo sapiens, UniProt O60885+P10275); test: Tumor TR-FRET trimer assay on tumors of the PK/PD Castrate VCaP model; type: in vivo, CB17.SCID mice; conditions: PK/PD Castrate VCaP Tumor Xenograft Model; Compound II-5 and Compound B at the same dose and dosing frequency, FIG. 20
T1 construct: Tumors obtained from the Castrate VCaP Model were lysed; from tissue; host or cells: VCaP tumour xenografts grown in castrated CB17.SCID mice
T1 sequence (P10275 whole entry, other chains not shown): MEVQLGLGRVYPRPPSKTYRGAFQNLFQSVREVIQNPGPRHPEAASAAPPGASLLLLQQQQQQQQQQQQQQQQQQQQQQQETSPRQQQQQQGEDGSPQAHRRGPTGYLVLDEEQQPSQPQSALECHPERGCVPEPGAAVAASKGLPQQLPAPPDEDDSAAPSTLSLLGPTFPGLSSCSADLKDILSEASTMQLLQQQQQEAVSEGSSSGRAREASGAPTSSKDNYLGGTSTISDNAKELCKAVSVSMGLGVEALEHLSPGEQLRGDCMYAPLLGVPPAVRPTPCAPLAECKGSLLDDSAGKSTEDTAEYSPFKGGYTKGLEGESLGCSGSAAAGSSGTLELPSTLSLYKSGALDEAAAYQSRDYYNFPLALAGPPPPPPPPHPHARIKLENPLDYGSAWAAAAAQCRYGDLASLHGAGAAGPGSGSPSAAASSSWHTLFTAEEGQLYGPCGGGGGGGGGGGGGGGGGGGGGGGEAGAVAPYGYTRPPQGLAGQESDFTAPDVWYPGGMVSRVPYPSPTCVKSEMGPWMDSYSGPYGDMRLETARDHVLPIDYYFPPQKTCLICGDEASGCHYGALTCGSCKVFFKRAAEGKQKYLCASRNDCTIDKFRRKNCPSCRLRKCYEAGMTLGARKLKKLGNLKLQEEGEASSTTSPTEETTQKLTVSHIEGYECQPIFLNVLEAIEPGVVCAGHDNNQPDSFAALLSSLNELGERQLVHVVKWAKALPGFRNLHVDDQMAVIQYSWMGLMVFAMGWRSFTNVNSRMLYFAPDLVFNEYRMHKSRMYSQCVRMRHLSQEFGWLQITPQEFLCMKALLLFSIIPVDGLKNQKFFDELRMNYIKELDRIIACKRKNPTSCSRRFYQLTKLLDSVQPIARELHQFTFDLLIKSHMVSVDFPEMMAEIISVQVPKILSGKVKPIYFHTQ
Procedure: 5M VCaP cells were subcutaneously implanted into CB17.SCID mice in 50% Matrigel (Corning). Mice were castrated under anesthesia once tumor volumes reached 100 mm^3. Tumors were then allowed to reach an average of approximately 150 mm^3 before randomization into efficacy arms. Tumors were measured twice weekly for Tumor Growth Inhibition (TGI) calculation. For PK/PD analysis, tumors were allowed to reach an average of 400 mm^3, before dosing the mice with test compound by oral gavage (n=5) for seven days. Mice were sacrificed 24 hours following the final dose, and tumors were harvested for downstream analysis. Plasma samples were collected from all dosed mice 2 hours following the final dose to determine test compound exposure by LC-MS/MS. […] the United States Food and Drug Administration for treatment of prostate cancer ([…]).
Tumors obtained from the Castrate VCaP Model were lysed in Cell Signaling Technology lysis buffer supplemented with protease/phosphatase inhibitors and nuclease. Each tumor was lysed in 10 μL of lysis buffer per mg of tumor and placed in a TissueLyser for 4 minutes at 20 Hz. Each sample was spun down at 16000×g for 10 minutes, the supernatant was removed, and a BCA assay was run to quantify the total protein concentration in each sample. In a white opaque 384 well plate each sample was diluted in supplemented CST lysis buffer to 48 and 24 μg of protein in a total volume of 16 μL. 4 μL of a 1:1 mixture of anti-androgen receptor and anti-BRD4 antibodies with donor and acceptor fluorophores were mixed into each well containing tumor samples. The plate was spun down at 300×g for one minute, placed on a plate shaker at 400 RPM for 10 minutes, spun down at 300×g for one minute, then sealed with a plate seal and stored overnight. Approximately 16 hours after adding antibodies, the plate was read on an Envision plate reader. The ratiometric value of each well was calculated by dividing the acceptor signal by the donor signal and multiplying by 10,000.

| Compound | GI50 (VCaP cells; Homo sapiens, VCaP, 72 h) [nM] | GI50 ([1]; 72 h) [nM] | GI50 [2] [nM] | GI50 (T47D cells; Homo sapiens, T47D, 72 h) [nM] | further results |
| --- | --- | --- | --- | --- | --- |
| Cc1sc2c(c1C)C(c1ccc(CC3CC4(CCN(c5ncc(C(=O)N[C@H]6C(C)(C)[C@H](Oc7ccc(C#N)c(OC(F)(F)F)c7)C6(C)C)cn5)CC4)C3)cc1)=N[C@@H](Cc1ncco1)c1nnc(C)n1-2 [II-1, N-[3-[4-cyano-3-(trifluoromethoxy)phenoxy]-2,2,4,4-tetramethyl-cyclobutyl]-2-[2-[[4-[(9S)-4,5,13-trimethyl-9-(oxazol-2-ylmethyl)-3-thia-1,8,11,12-tetrazatricyclo[8.3.0.0^2,6]trideca-2 (6),4,7,10,12-pentaen-7-yl]phenyl]methyl]-7-azaspiro[3.5]nonan-7-yl]pyrimidine-5-carboxamide] | > 3000 | < 500 | < 500 | < 500 | – |
| COc1cc(O[C@H]2CC[C@H](NC(=O)c3ncc(N4CCC5(CCC(c6ccc(C7=N[C@@H](C)c8nnc(C)n8-c8sc(C)c(C)c87)cc6)CC5)C4)cn3)CC2)ccc1C#N (stereo partly drawn) [Compound I-102] | < 500 | < 500 | < 500 | < 500 | – |
| COc1cc(O[C@H]2C(C)(C)[C@H](NC(=O)c3cnc(N4CCC5(CCC(c6ccc(C7=N[C@@H](C)c8nnc(C)n8-c8sc(C)c(C)c87)cc6)CC5)C4)nc3)C2(C)C)ccc1C#N [II-7] | 1500 to 3000 | < 500 | < 500 | < 500 | – |
| COc1cc(O[C@H]2C(C)(C)[C@H](NC(=O)c3cnc(N4CCC5(CC4)CC(Oc4ccc(C6=N[C@@H](Cc7ncco7)c7nnc(C)n7-c7sc(C)c(C)c76)cc4)C5)nc3)C2(C)C)ccc1C#N [Compound II-5 in Crystal Form A, N-[(1r,3r)-3-(4-cyano-3-methoxy-phenoxy)-2,2,4,4-tetramethyl-cyclobutyl]-2-[2-[4-[(9S)-4,5,13-trimethyl-9-(oxazol-2-ylmethyl)-3-thia-1,8,11,12-tetrazatricyclo[8.3.0.0^2,6]trideca-2 (6),4,7,10,12-pentaen-7-yl]phenoxy]-7-azaspiro[3.5]nonan-7-yl]pyrimidine-5-carboxamide Crystal Form A] | – | – | – | – | relative stability of crystal forms [3]: superior stability; physical stability of crystalline form on storage [4]: no change in crystalline form was observed |
| COc1cc(O[C@H]2C(C)(C)[C@H](NC(=O)c3cnc(N4CCC5(CC4)CC(Oc4ccc(C6=N[C@@H](Cc7ncco7)c7nnc(C)n7-c7sc(C)c(C)c76)cc4)C5)nc3)C2(C)C)ccc1C#N [Compound II-5 in Crystal Form B, N-[(1r,3r)-3-(4-cyano-3-methoxy-phenoxy)-2,2,4,4-tetramethyl-cyclobutyl]-2-[2-[4-[(9S)-4,5,13-trimethyl-9-(oxazol-2-ylmethyl)-3-thia-1,8,11,12-tetrazatricyclo[8.3.0.0^2,6]trideca-2 (6),4,7,10,12-pentaen-7-yl]phenoxy]-7-azaspiro[3.5]nonan-7-yl]pyrimidine-5-carboxamide Crystal Form B] | – | – | – | – | relative stability of crystal forms [3]: converted to Compound II-5 in Crystal Form A |
| COc1cc(O[C@H]2C(C)(C)[C@H](NC(=O)c3cnc(N4CCC5(CCN(c6ccc(C7=N[C@@H](C)c8nnc(C)n8-c8sc(C)c(C)c87)cc6)CC5)C4)nc3)C2(C)C)ccc1C#N [II-4, N-[3-(4-cyano-3-methoxy-phenoxy)-2,2,4,4-tetramethyl-cyclobutyl]-2-[8-[4-[(9S)-4,5,9,13-tetramethyl-3-thia-1,8,11,12-tetrazatricyclo[8.3.0.0^2,6]trideca-2 (6),4,7,10,12-pentaen-7-yl]phenyl]-2,8-diazaspiro[4.5]decan-2-yl]pyrimidine-5-carboxamide] | < 500 | < 500 | < 500 | < 500 | – |
| COc1cc(O[C@H]2C(C)(C)[C@H](NC(=O)c3cnc(N4CCC5(CCC(c6ccc(C7=N[C@@H](Cc8ncco8)c8nnc(C)n8-c8sc(C)c(C)c87)cc6)CC5)C4)nc3)C2(C)C)ccc1C#N [II-12] | – | – | < 500 | – | GI50 (VCaP cells; 72 hours): < 500 nM; Ratio of GI50's (VCaP cells): 1; GI50 [1]: < 500 nM; Ratio of GI50's [2]: 1; GI50 (T47D cells): < 500 nM |
| COc1cc(O[C@H]2CC[C@H](NC(=O)c3ccc(N4CCC5(CN(c6ccc(C7=N[C@@H](C)c8nnc(C)n8-c8sc(C)c(C)c87)cc6)CC5(F)F)C4)nn3)CC2)ccc1C#N (stereo partly drawn) [Compound I-104] | – | – | < 500 | – | GI50 (VCaP cells; 72 hours): 500 to 1500 nM; GI50 [1]: 500 to 1500 nM; GI50 (T47D cells): 1500 to 3000 nM |
| COc1cc(O[C@H]2C(C)(C)[C@H](NC(=O)c3cnc(N4CCC5(CCC(c6ccc(C7=N[C@@H](Cc8ncco8)c8nnc(C)n8-c8sc(C)c(C)c87)cc6)CC5)C4)nc3)C2(C)C)ccc1C#N [II-11, N-[(1r,3r)-3-(4-cyano-3-methoxy-phenoxy)-2,2,4,4-tetramethyl-cyclobutyl]-2-[8-[4-[(9S)-4,5,13-trimethyl-9-(oxazol-2-ylmethyl)-3-thia-1,8,11,12-tetrazatricyclo[8.3.0.0^2,6]trideca-2 (6),4,7,10,12-pentaen-7-yl]phenyl]-2-azaspiro[4.5]decan-2-yl]pyrimidine-5-carboxamide] | < 500 | < 500 | < 500 | < 500 | – |
| Cc1sc2c(c1C)C(c1ccc(OC3CC4(CCN(c5ncc(C(=O)N[C@H]6C(C)(C)[C@H](Oc7ccc(C#N)c(Cl)c7)C6(C)C)cn5)CC4)C3)cc1)=N[C@@H](Cc1ncco1)c1nnc(C)n1-2 [B, reference compound] | – | – | – | – | Ratio of GI50's (VCaP cells): 1.3; Ratio of GI50's [2]: 5.3; ternary complex formation between compound, androgen receptor, and BRD4 protein in tumors [5]: observed |
